Among the data in BindingDB's records for doi:10.1021/acs.jmedchem.1c00049 (Genentech, 2021) are IC50 values, retold here.

A short description of assay [1]: Inhibition of human Nav1.7 expressed in HEK293 cells incubated for 1 hr in presence of veratridine by sodium influx assay.
Assay [2] can be described thus: Displacement of [3H]GX-545 Nav1.7 (unknown origin) expressed in HEK cells by liquid scintillation counting based radioligand competition assay. Background: Displacement assays read how much labelled ligand stays bound in the presence of the test substance.

On to `CS(=O)(=O)NC(=O)c1cc(C2CC2)c(OCC2CCN(C(c3ccccc3)c3ccccc3)CC2)cc1F`, for which the IC50 in assay [1] was determined as 66 nM; in assay [2], 3.6 nM. Taken in the same sequence, the figures for `CS(=O)(=O)NC(=O)c1cc(C2CC2)c(OCC2CCN(Cc3cc(Cl)cc(Cl)c3)CC2)cc1F` [US9546164, 139] were 120 nM and 2.4 nM.

As for `CS(=O)(=O)NC(=O)c1cc(C2CC2)c(OCC2CCN(C(=O)c3cc(Cl)cc(Cl)c3)CC2)cc1F` [US9546164, 253], the half-inhibitory concentration (IC50) worked out at 34 nM in assay [1] and 9.8 nM in assay [2]. On to `CS(=O)(=O)NC(=O)c1cc(C2CC2)c(OCC2CCN(Cc3ccc(Cl)cc3)CC2)cc1F` [US9546164, 104], for which the IC50 in assay [1] is 42 nM; in assay [2] it was 22 nM. Taken in the same sequence, the figures for `O=C(NS(=O)(=O)C1CC1)c1cc(C2CC2)c(OCC23CC4CC(CC(C4)C2)C3)cc1F` [US8952169, 148] were 14 nM and 1.1 nM.

For `O=C(NS(=O)(=O)C1COC1)c1cc(C2CC2)c(OCC23CC4CC(CC(C4)C2)C3)cc1F`, the IC50 in assay [1] was 38 nM; in assay [2], 4 nM. As to `O=C(NS(=O)(=O)N1CCOCC1)c1cc(C2CC2)c(OCC23CC4CC(CC(C4)C2)C3)cc1F` [US8952169, 155], the IC50 in assay [2] came to 2.3 nM. For `O=C(NS(=O)(=O)N1CCCC1)c1cc(C2CC2)c(OCC23CC4CC(CC(C4)C2)C3)cc1F` [US8952169, 154], the concentration for half-maximal inhibition (IC50) in assay [1] came out at 160 nM; in assay [2] it was 2.2 nM. Regarding `CS(=O)(=O)NC(=O)c1cc(C2CC2)c(OCC2CCN(Cc3ccccc3)CC2)cc1F`, the figures for the concentration for half-maximal inhibition (IC50) in assay [1] and in assay [2] were 3200 nM and 140 nM, respectively.

`CS(=O)(=O)NC(=O)c1cc(C2CC2)c(OCC2CCN(Cc3ccc(OC(F)(F)F)cc3)CC2)cc1F` [US9546164, 135]: the half-inhibitory concentration (IC50) in assay [1] came to 31 nM; in assay [2] it was 7.7 nM. Taken in the same sequence, the figures for `CS(=O)(=O)NC(=O)c1cc(C2CC2)c(OCC2CN(C(c3ccccc3)c3ccccc3)C2)cc1F` [US8952169, 440] were 23 nM and 5.5 nM. The like results for `CC(C)(c1cc(Cl)cc(Cl)c1)N1CCC(COc2cc(F)c(C(=O)NS(C)(=O)=O)cc2C2CC2)CC1` [US9546164, 209] were, in that order, 26 nM and 0.8 nM.

As usually defined, the IC50 is the concentration that gives 50% inhibition.
